From US10676474B2, “1,6-naphthyridine derivatives as CDK4/6 inhibitor” (CSTONE PHARMACEUTICALS, priority 2016, dated 2020)
≈ marks a conversion by molar mass, not a printed value.

Legend:
[1] = Thermodynamic solubility test (shake-flask, HPLC); assay type: physicochemical; conditions: phosphate buffer, aqueous buffer, thermodynamic from solid; pH = 7.4, Table 3-2; read-out: Thermodynamic solubility
Experimental: The thermodynamic solubility of the compounds was determined by the shake-flask method and HPLC. The solubility of the compounds is an important property that affects drug screening of compounds and the absorption of compounds in animals and humans. A saturated solution of the compound was first given and quantitatively tested by HPLC to obtain the solubility of the compound.
50 mM phosphate buffer solution, pH 7.4.
Not less than 2 mg of the sample powder was weighed into a vial of Whatman miniuniprep. If test of the thermodynamic solubility of a sample in multiple buffer solutions is required, an individual vial is required for each test.
450 μL of the buffer solution (pH 7.4) was added to each Whatman miniuniprep vial.
After the addition of the buffer solution, the Whatman miniuniprep cap with a filter was mounted and pressed above the liquid level so that the filter could contact with the buffer solution during shaking.
And the observation of the solution was recorded.
It was shaked at 550 RPM for 24 hours at room temperature (about 22 to 25° C.).
The Whatman Miniunipreps filter cap was pressed to the bottom to give the filtrate of the sample solubility solution. All sample vials should be filtered before and after insoluble substances and their leakage.
The buffer was diluted 50 folds to give a sample diluent.
Three UV standards from low to high concentration were injected into HPLC, followed by the injection of the dilutions and supernatants of the tested compounds. The tested sample was injected twice.

physchem = conditions: pH 7.4, aqueous buffer, kinetic from dmso stock
[2] = test system: LU-01-0393 lung cancer patient-derived tumor tissue xenograft (PDX); assay: In vivo pharmacodynamic study (1), LU-01-0393 PDX; design: species or system BALB/c nude mice; conditions: 120 mg/kg orally daily
Experimental: The in vivo pharmacodynamic experiments were performed on the BALB/c nude mice implanted subcutaneously with the LU-01-0393 lung cancer patient-derived tumor tissue xenograft (PDX).
BALB/c nude mice, female, 6-8 weeks, weighing approximately 17-21 g, were placed in a single ventilated cage (5 mice per cage) under a special pathogen free environment. All of the cages, beddings and water were disinfected before use. All of the animals were permitted free access to a standard certified commercial laboratory diet. A total of 36 mice purchased from Vital River Laboratory Animal Co., LTD, Beijing were used for the study. Each mouse was implanted subcutaneously with a tumor LU-01-0393 FP4 section (20-30 mm^3) in the right back for tumor growth. The dosing initiated when the average tumor volume reached about 150-200 mm^3. The tumor volume was measured twice a week using a two-dimensional caliper, and the volume was measured in mm^3, calculated by the following the formula: V=0.5 a×b^2, wherein, a and b were the long and short diameters of the tumor, respectively. The antitumor efficacy was determined by dividing the average increase in the tumor volume of the animals treated with the compound by the average increase in the tumor volume of the untreated animals.

[3] = Metabolic stability in human liver microsomes; assay type: in vitro ADME; conditions: 0.5 mg/mL protein, read-out: Human T1/2
Experimental: (§1) This assay is used to test the metabolic stability of tested substances in rats, mice and human liver microsomes.
(§2) 1) The tested compound with concentration of 1 μM was co-incubated with liver microsomes with a protein concentration of 0.5 mg/mL under a reducing coenzyme II regeneration system in a 37° C. water bath.
(§3) 2) The positive controls include: testosterone (3A4 substrate), propafenene (2D6 substrate) and diclofenac (2C9 substrate). The incubation condition of the positive controls was consistent with that of the compound.
(§4) 3) The reaction time points were: 0, 5, 10, 20, 30 and 60 minutes, and the reaction is terminated at the corresponding time point using a termination solution containing an internal standard. The compounds were also incubated with microsomes for 60 minutes without a reducing coenzyme II regeneration system and served as a negative control.
(§5) 4) Each time point was a single point (n=1).
(§6) 5) The sample was determined by LC/MS/MS, and the compound concentration was shown as the ratio of the peak area of the compound to the peak area of the internal standard (non-standard).
(§7) 6) In the project report summary, the half-life and the clearance rate would be calculated.

[4] = it has been reported; cited from earlier work
NCI-H358 cells = assay: Cell viability assay NCI-H358 (CellTiter-Glo); assay type: cell-based; conditions: Homo sapiens, 168 h; NCI-H358, incubated for 7 days
Experimental: The NCI-H358 cell line is from the cell bank of the Department of Biology of WuXi Apptec Co. Ltd. Envision Multi-Label Analyzer (PerkinElmer).
1) 100 μL of phosphate buffer solution was added to the peripheral wells of the 384-well plate and 40 μL of NCI-H358 cell suspension was added to the other wells containing 250 NCI-H358 cells. The cell plate was then placed in a carbon dioxide incubator and incubated overnight.
2) A 3-fold gradient dilution was subjected to the tested compounds using Echo. Each compound was diluted by 10 concentration gradients (diluted from 25 μM to 1.27 nM), 100 nL of which was added to the corresponding wells of the cell plate. The cell plate was then placed in a carbon dioxide incubator and incubated for 7 days.
3) 20 μL of Promega CellTiter-Glo reagent was added to each well of the cell plate, and shaken for 10 minutes away from light at room temperature to stabilize the luminescence signal. Readings were performed using a PerkinElmer Envision Multi-label Analyzer.
Table 1 provides the inhibitory activity of the compounds of the present invention against the proliferation of H358 cells.

[5] = Metabolic stability in mouse liver microsomes; assay type: in vitro ADME; conditions: 0.5 mg/mL protein, read-out: Mice T1/2
Experimental: as §1, §2, §3, §4, §5, §6, §7

[6] = Metabolic stability in rat liver microsomes; assay type: in vitro ADME; conditions: 0.5 mg/mL protein, read-out: Rats T1/2
Experimental: as §1, §2, §3, §4, §5, §6, §7

[7] = In vivo pharmacodynamic study (2), NCI-H358 model, animal weight; design: species or system BALB/c nude mice; conditions: 60 mg/kg orally daily
Experimental: (§8) The in vivo pharmacodynamic experiments were performed on the BALB/c nude mice implanted subcutaneously with the non-small cell lung cancer NCI-H358 model.
(§9) All of the cages, beddings and water were disinfected before use. All of the animals were permitted free access to a standard certified commercial laboratory diet. A total of 86 mice purchased from Vital River Laboratory Animal Co., LTD, Beijing were used for the study. The animal information of the experiments in Example 34 was as follows: BALB/c nude mice, female, 6-8 weeks, weighing approximately 16-18 g, were placed in a single ventilated cage (4 mice per cage) under a special pathogen free environment. All of the cages, beddings and water were disinfected before use. All of the animals were permitted free access to a standard certified commercial laboratory diet. A total of 56 mice purchased from Shanghai Lingchang Biotechnology Co., Ltd. were used for the study.
(§10) Each mouse was implanted subcutaneously with NCI-H358 tumor cells in the right back for tumor growth. The dosing initiated when the average tumor volume reached about 100-200 mm^3. […] The tumor volume was measured twice a week using a two-dimensional caliper, and the volume was measured in mm^3, calculated by the following the formula: V=0.5 a×b^2, wherein, a and b were the long and short diameters of the tumor, respectively. The antitumor efficacy was determined by dividing the average increase in the tumor volume of the animals treated with the compound by the average increase in the tumor volume of the untreated animals, and the safety of the compound was determined by the change in the body weight of the animal treated with the compound.

[8] = test system: non-small cell lung cancer NCI-H358 model; assay: In vivo pharmacodynamic study (2), NCI-H358 model, tumor volume; design: species or system BALB/c nude mice; conditions: 60 mg/kg orally daily, Table 6-1
Experimental: as §8, §9, §10
TGI: Tumor Growth Inhibition.

SMILES: CC(=O)c1c(C)c2cnc(Nc3ccc(N4CCNCC4)cn3)nc2n(C2CCCC2)c1=O [Palbociclib]
- solubility thermodynamic at 24 h [1]: 65.3 µM (≈ 29.2 µg/mL)
- solubility kinetic at 24 h (physchem): 103 µM (≈ 46.1 µg/mL)
- Gross tumor volume Day 0 ([2]; Day 0): 145 mm^3
- Gross tumor volume Day 7 ([2]; Day 7): 173 mm^3
- Gross tumor volume Day 14 ([2]; Day 14): 179 mm^3
- Gross tumor volume Day 20 ([2]; Day 20): 188 mm^3
- half-life at 1 μM [3]: 44.7 min
- brain permeability [4]: poor
- IC50 (NCI-H358 cells): 314 nM
- half-life at 1 μM [5]: 53.3 min
- half-life at 1 μM [6]: 47.8 min
- Changes in animal weight, 0 days ([7]; 0 days): 0.0%
- Changes in animal weight, 7 days ([7]; 7 days): 1.0%
- Changes in animal weight, 14 days ([7]; 14 days): 0.9%
- Changes in animal weight, 17 days ([7]; 17 days): 0.7%
- Gross tumor volume, 0 day ([8]; 0 day): 152 mm^3
- Gross tumor volume, 7 days ([8]; 7 days): 137 mm^3
- Gross tumor volume, 14 days ([8]; 14 days): 107 mm^3
- Gross tumor volume, 17 days ([8]; 17 days): 104 mm^3
- Category Efflux transporter substrate (Caco-2 cells): Highly
- Category Permeability (Caco-2 cells): Low
